This is an account of results in US6465660B1, “Isoindoloindolone compounds” (Les Laboratoires Servier, priority 2001, dated 2002).

Each structure is given as a SMILES string.

This experiment deals with T1, MT3 sites (Mesocricetus auratus, UniProt A0ABM2YAB8).
T1 construct: carried out on hamster brain membranes using 2-[^125I] iodomelatonin as radioligand; from tissue; host or cells: hamster brain membranes
T1 sequence (A0ABM2YAB8 1-231): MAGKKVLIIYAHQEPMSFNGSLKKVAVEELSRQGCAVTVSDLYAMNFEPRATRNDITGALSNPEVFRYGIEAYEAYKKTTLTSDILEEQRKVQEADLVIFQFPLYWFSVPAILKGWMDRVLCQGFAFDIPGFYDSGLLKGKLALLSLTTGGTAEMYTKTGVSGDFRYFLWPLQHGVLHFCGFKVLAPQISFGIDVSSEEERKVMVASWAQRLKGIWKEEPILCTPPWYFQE
The experiment in a line: Study of binding to melatonin MT3 binding sites. The following applies: hamster brain membranes, 2-[125I] iodomelatonin radioligand, 30 minutes, 4° C. As to the method: Binding to MT3 sites is characterised by remarkably rapid association and dissociation kinetics and by tissue localisation (brain).
The experiments of binding to MT3 sites are carried out on hamster brain membranes using 2-[^125I] iodomelatonin as radioligand in accordance with the protocol described by P. Paul et al. (J. Pharmacol. Exp. Ther. 1999 290, 334). The membranes are incubated for 30 minutes with 2-[^125I] iodomelatonin at a temperature of 4° C. and at different concentrations of the compounds to be tested. Following incubation, the membranes are rapidly filtered and then washed with cold buffer using a filtration system. The radioactivity retained is measured using a scintillation counter.

A word on the IC50: it is the concentration needed to halve the response being measured. Read a low IC50 as inhibition by little substance. For `COc1ccc2[nH]cc(CCNC(C)=O)c2c1` [melatonin, N-acetyl-5-methoxytryptamine], the concentration for half-maximal inhibition (IC50) was determined as 0.045 µM.
